Measured values from publication PMC6753678, “Fueling Open Innovation for Malaria Transmission-Blocking Drugs: Hundreds of Molecules Targeting Early Parasite Mosquito Stages” (Frontiers in Microbiology, 2019).
Like-named read-outs stand apart in the source and are kept apart here.

Legend:
[1] = system: HepG2 cells; experiment: HepG2 cytotoxicity assay; conditions: for IC50: read-out: HepG2 cytotoxicity assay IC50, dose response confirmation; for Pb ODA (this manuscript) HepG2 cytoxicity: HepG2 cytotoxicity listed with the Pb ODA data set (this manuscript)
Method in brief: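 Cells are plated at 2,500 per well on compound-treated plates in MEM containing 10% fetal bovine serum and 1% NEAA, then incubated 48 h at 37°C.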

[2] = system: 3D7-strain P. falciparum asexual parasites; experiment: P. falciparum asexual growth inhibition assay (Pf GIA); type: cell-based, Plasmodium falciparum; conditions: dose response confirmation; read-out: Pf asexual growth inhibition assays IC50
Method in brief: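 Read-out was lactate dehydrogenase activity measured by absorbance at 650 nm after freezing and thawing, against 50 μM chloroquine and DMSO controls. Before that, asexual 3D7 cultures (0.25% parasitemia, 2% hematocrit) had 72 h dose-response compound exposure at 37°C in 5% CO2/5% O2/90% N2; three independent replicates averaged.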

[3] = system: P. berghei ookinete development; conditions: for % inhibition, Replicate A / % inhibition, Replicate B: primary screen at 1 μM
[4] = HepG2 values of the three screens unified
[5] = read-out: Pb ODA IC50, this manuscript
[6] = read-out: Pb Ookinete development assay IC50, dose response confirmation
[7] = read-out: Pb ODA (this manuscript) IC50, P. berghei ookinete development assay, this manuscript
[8] = unified HepG2 value across the three screens

Row | SMILES | HepG2 cytoxicity (Pb ODA, this manuscript) [1] [µM] | Unified cytotox [1, 4] [µM] | IC50 [1] [nM] | IC50 [2] [nM] | Is compound selective in assay? Pb ODA active? ([3]; 1: YES, 0: NO) | % inhibition, Replicate A [3] [%] | % inhibition, Replicate B [3] [%] | IC50 [3, 5] [nM] | IC50 [3, 6] [nM] | Pb ODA (this manuscript) HepG2 cytoxicity [1] [µM] | Is compound selective in assay? Pb ODA active? [3] | IC50 [3, 7] [nM] | Unified cytotox [1, 8] [µM]
1 | Cc1[nH]c(C)c(-c2ccc(Oc3ccc(F)cc3)cc2)c(=O)c1Cl [TCMDC-134728] | 56.23 | 56.23 | 56200 | 19 | 1 (1: YES) | 96.35 | 103.17 | 50 | 49 | – | – | – | –
2 | C/C=C/COc1ccc(-c2c(C)[nH]c(C)c(Cl)c2=O)cc1 [TCMDC-134729] | – | 100.00 | 100000 | 281 | 1 (1: YES) | 83.52 | 96.22 | 470 | 469 | – | – | – | –
3 | COc1ccc2nccc([C@@H](O)CN3CCC(NC(=O)c4cc5c(F)cc(F)cc5[nH]4)CC3)c2n1 [TCMDC-134945] | – | – | 10500 | 769 | – | 54.14 | 76.92 | – | 415 | 10.47 | 1 (key: 1: YES; 0: NO) | 420 | –
4 | Cc1cccc(Nc2nc(NCCCCN)nc3cc[nH]c(=O)c23)c1.O=C(O)C(F)(F)F [TCMDC-134946] | – | – | 28800 | 487 | 0 (0: NO) | 57.54 | 45.06 | 3060 | 3060 | – | – | – | 28.84
5 | CC1CN(Cc2cccc(C#N)c2)CCN1c1ccc(NC(=O)c2cccs2)cc1.O=C(O)C(F)(F)F (stereo not shown) [TCMDC-134969] | – | – | 3020 | 78 | – | 50.06 | 40.18 | – | 1640 | 3.02 | 0 (key: 1: YES; 0: NO) | – | –
6 | CCC(C)CN1CCN(c2ccc(NC(=O)c3cccs3)cc2)C(C)C1.O=C(O)C(F)(F)F (stereo not shown) [TCMDC-134996] | – | – | 60300 | 753 | – | 97.72 | 83.44 | – | 1050 | 60.26 | 1 (key: 1: YES; 0: NO) | – | –
7 | CC1CN(Cc2ccccc2)CCN1c1ccc(NC(=O)c2cccs2)cc1.O=C(O)C(F)(F)F (stereo not shown) [TCMDC-135005] | – | – | 57500 | 504 | – | 105.18 | 99.00 | – | 732 | 57.54 | 1 (key: 1: YES; 0: NO) | 730 | –
8 | CC1CN(Cc2cccc(F)c2)CCN1c1ccc(NC(=O)c2cccs2)cc1.O=C(O)C(F)(F)F (stereo not shown) [TCMDC-135009] | – | – | 120000 | 242 | – | 59.80 | 66.69 | – | 420 | 120.23 | 1 (key: 1: YES; 0: NO) | – | –
9 | O=C(Nc1ccc(N2CCCN(Cc3cccc(F)c3)CC2)cc1)c1cccs1.O=C(O)C(F)(F)F [TCMDC-135012] | – | – | 78500 | 650 | – | 50.47 | 51.73 | – | 1900 | 78.52 | 1 (key: 1: YES; 0: NO) | 1900 | –
10 | CN(Cc1cccc(F)c1)C1CCN(c2cc(NC(=O)c3ccc(F)cc3)ccn2)CC1.O=C(O)C(F)(F)F [TCMDC-135018] | – | – | 140 | 31 | 0 (0: NO) | 54.82 | 42.75 | 6060 | 6060 | – | – | – | 0.14
11 | O=C(O)C(F)(F)F.O=c1[nH]ccc2nc(N[C@@H]3CCCNC3)nc(Nc3ccc(S(=O)(=O)N4CCOCC4)cc3)c12 [TCMDC-135038] | – | – | 45700 | 347 | 1 (1: YES) | 53.41 | 58.16 | 1550 | 1540 | – | – | – | 45.71
12 | C=CCOc1ccc(-c2c(C)[nH]c(C)c(Br)c2=O)cc1 [TCMDC-135042] | – | – | 7080 | 226 | – | 92.87 | 107.55 | – | 700 | 7.08 | 1 (key: 1: YES; 0: NO) | – | –
13 | COCCn1c(-c2cccc(Cl)c2)nn(-c2ccc([N+](=O)[O-])cc2Cl)c1=S [TCMDC-135130] | – | – | 100000 | 947 | 1 (1: YES) | 51.94 | 48.77 | – | 1600 | – | – | – | 100.00
14 | COc1ccc2ncc(C#N)c(CCN3C4CCC3CC(NCc3ccc5c(n3)NC(=O)CS5)C4)c2c1.Cl (stereo not shown) [TCMDC-135180] | 6.46 | 6.46 | 6460 | 630 | 0 (0: NO) | 66.14 | 72.52 | 3070 | 3070 | – | – | – | –
15 | C#C[C@H]1O[C@@H](n2cnc3c(Nc4cc(Br)cc(C(F)(F)F)c4)ncnc32)[C@H](O)[C@@H]1O [TCMDC-135185] | – | – | 57500 | 3380 | 1 (1: YES) | 92.13 | 83.74 | 530 | 533 | – | – | – | 57.54
16 | COc1ccc2ncc(C#N)c(CCN3CCC(NCc4ccc5c(n4)NC(=O)CS5)CC3)c2n1.Cl [TCMDC-135188] | 54.95 | 54.95 | 55000 | 2370 | 1 (1: YES) | 67.48 | 73.91 | 770 | 768 | – | – | – | –
17 | COc1c(C)[nH]c(C)c(-c2ccc(Oc3cccc(C(F)(F)F)c3)cc2)c1=O [TCMDC-135253] | – | – | 1300 | 937 | – | 56.53 | 75.40 | – | 3600 | 1.30 | 0 (key: 1: YES; 0: NO) | 3600 | –
18 | Cc1[nH]c(C)c(-c2ccc(OCc3ccc(OC(F)(F)F)cc3)nc2)c(=O)c1Br [TCMDC-135254] | 87.10 | 87.10 | 87100 | 122 | 1 (1: YES) | 57.86 | 80.15 | 1680 | 1680 | – | – | – | –
19 | Cc1[nH]c(C)c(-c2ccc(OCc3ccc(OC(F)(F)F)cc3)nc2)c(=O)c1Cl [TCMDC-135271] | – | 100.00 | 100000 | 67 | 1 (1: YES) | 71.19 | 76.52 | 1070 | 1070 | – | – | – | –
